We go through 12 compounds from ChEMBL document CHEMBL1201862, “PubChem BioAssay data set” (2004).

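Following 48 hours of exposure in 96-well plates, responses at five concentrations were used to interpolate endpoints linearly. GI50: concentration for 50% inhibition of growth.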 Activity calls are given as the source filed them. Cut-off read from the data, not from the text of the source: active = GI50 up to about 1.1 µM and inactive = higher. Where only a bound is given, the exact number is not on record here.

Holding throughout (assay): DTP human tumour cell line panel, 48 h
The test system of assay [1] is OVCAR-3.
The subject of assay [2] is A549.
Assay [3] deals with SK-MEL-5.
The test system of assay [4] is HCT-15.
The subject of assay [5] is SF-295.
The subject of assay [6] is HT-29.
Assay [7] concerns OVCAR-8.
For assay [8], the system named is RXF 393.
The subject of assay [9] is SW-620.
Assay [10] relates to M14.
In assay [11] the test system is SK-MEL-28.
Assay [12] deals with U-251.
Assay [13] relates to NCI-H522.
In assay [14] the test system is OVCAR-4.
Assay [15] relates to CAKI-1.
The subject of assay [16] is SN12C.
Assay [17] has as its system HOP-92.
In assay [18] the test system is PC-3.
Assay [19] deals with MCF7.

One may read the GI50 as the concentration at which growth is held to half of that of the control. With `C=C(C=O)CCCC(C)[C@@H]1CCC23CC12CCC1[C@@]2(C)CCC(OC(C)=O)C(C)(C)C2CC(OC2OC(COC(C)=O)C(O)C(O)C2O)[C@]13C` (stereo partly specified), the GI50 was 2.72 µM (inactive) in assay [1]; 6.34 µM (inactive) in assay [2]; 5.58 µM (inactive) in assay [3]; 1.56 µM in assay [4]; 5.83 µM (inactive) in [5]; 5.43 µM (inactive) in assay [6]. Further, the GI50 in assay [7] was 4.38 µM (inactive); in assay [8], 5.6 µM (inactive); in assay [9], 0.798 µM (active); in assay [10] it was 1.47 µM (inactive); in assay [11] it was 0.845 µM (active); in assay [12], 2.72 µM (inactive). The GI50 was 0.843 µM (active) in [13]; 5.14 µM (inactive) in assay [14]; 5.25 µM (inactive) in assay [15]; 1.58 µM (inactive) in assay [16]; 6.22 µM (inactive) in assay [17].

As for `COC1OC2COC(c3ccccc3)OC2C(O)C1Br` (stereo unspecified), the GI50 in assay [1] was > 100 µM (inactive); in assay [2], > 100 µM (inactive); in [3], > 100 µM (inactive); in assay [4], above 100 µM; in assay [5], > 100 µM (inactive); in assay [6], > 100 µM (inactive). In addition, the GI50 in assay [7], in assay [8], in assay [9], in assay [10], in [11] and in assay [12] was > 100 µM (inactive) in each case. Further, the GI50 in assay [13], in assay [14], in assay [15], in assay [16] and in assay [17] was > 100 µM (inactive) each time.

Turning to `Cc1ccc(S(=O)(=O)OCCn2cnc3nc(NC(=O)c4ccccc4)[nH]c(=O)c32)cc1`, the GI50 in assay [1] is > 100 µM (inactive); in assay [2] it was > 100 µM (inactive); in [3], > 100 µM (inactive); in assay [4], above 100 µM; in assay [5], > 100 µM (inactive); in assay [6] it was > 100 µM (inactive). Besides, the GI50 in assay [7], in assay [8], in [9], in assay [10], in assay [11] and in assay [12] was > 100 µM (inactive) in each case. The GI50 in assay [13] was 52.6 µM (inactive); in [14] it was > 100 µM (inactive); in assay [15], > 100 µM (inactive); in [16], > 100 µM (inactive); in assay [17], > 100 µM (inactive).

With `COc1cc(/C=C2\[C@H]3c4c(c(OC)c(C)c(OC)c4OC)CC(C(=O)N2Cc2ccccc2)N3C)c(OC)c(C)c1OC`, the GI50 was 16.7 µM (inactive) in assay [1]; > 100 µM (inactive) in assay [2]; 19 µM (inactive) in assay [3]; 19.8 µM (inactive) in assay [5]; 19.1 µM (inactive) in assay [6]; 38.5 µM (inactive) in [7]. Also, the GI50 in assay [8] is > 100 µM (inactive); in [9], 22.2 µM (inactive); in assay [10] it was 18.1 µM (inactive); in assay [11], 25.4 µM (inactive); in assay [12], 19.5 µM (inactive); in [13], 13.1 µM (inactive). Moreover, the GI50 is 16.1 µM (inactive) in [14], 30.3 µM (inactive) in [15], 17.9 µM (inactive) in [16] and 19.9 µM (inactive) in assay [17].

On to `c1ccc(SC(CCCCOC2CCCCO2)Sc2ccccc2)cc1` (stereo unspecified), for which the GI50 in [1] was 56.5 µM (inactive); in assay [2] it was 93.3 µM (inactive); in assay [3] it was 30.5 µM (inactive); in assay [4], 91.2 µM; in [5] it was > 100 µM (inactive); in [6] it was 52 µM (inactive). The GI50 in assay [7] was 87.5 µM (inactive); in assay [8] it was 38.8 µM (inactive); in assay [9], 76.4 µM (inactive); in assay [10], > 100 µM (inactive); in assay [11], 64.3 µM (inactive); in [12], > 100 µM (inactive). The GI50 in [13] was 18.4 µM (inactive); in [14], 55.6 µM (inactive); in [15], 92.7 µM (inactive); in assay [16] it was > 100 µM (inactive); in assay [17], 11.8 µM (inactive).

Turning to `O=C(O)CCCNS(=O)(=O)c1ccccc1`, the GI50 in [1] is > 100 µM (inactive); in assay [2] it was > 100 µM (inactive); in [3], > 100 µM (inactive); in assay [4], above 100 µM; in [5], > 100 µM (inactive); in assay [6], > 100 µM (inactive). The GI50 in assay [7], in [8], in assay [9], in [10], in [11] and in assay [12] was > 100 µM (inactive) throughout. In addition, the GI50 in assay [13], in assay [14], in assay [15], in assay [16] and in [17] was > 100 µM (inactive) each time.

Turning to `CC(C)CNC(=O)Cn1c(-c2ccccc2)cc2ccccc21`, the GI50 in assay [1] was > 100 µM (inactive); in assay [2] it was > 100 µM (inactive); in assay [3] it was > 100 µM (inactive); in assay [4], above 100 µM; in assay [18], > 100 µM (inactive); in assay [5], 54.3 µM (inactive). The GI50 in assay [6], in assay [7], in [8], in assay [9], in [10] and in assay [11] was > 100 µM (inactive) each time. Also, the GI50 in assay [12] was > 100 µM (inactive); in assay [13] it was 68.1 µM (inactive); in [14], > 100 µM (inactive); in assay [15] it was > 100 µM (inactive); in assay [19] it was > 100 µM (inactive); in [16], > 100 µM (inactive).

Consider `CCOC(=O)C[C@@H](C)[C@]1(C(=O)OC)CCCC1=O`, for which the GI50 in assay [1] is > 100 µM (inactive); in assay [2], > 100 µM (inactive); in assay [3] it was > 100 µM (inactive); in assay [4] it was above 100 µM; in assay [5] it was > 100 µM (inactive); in assay [6], > 65.8 µM (inactive). For the same compound, the GI50 in assay [7], in [8], in assay [9], in assay [10], in [11] and in assay [12] was > 100 µM (inactive) throughout. Besides, the GI50 in assay [13], in [14], in assay [15], in assay [16] and in assay [17] was > 100 µM (inactive) throughout.

In the case of `CCOC(OC1=CCCC1)C(C)[Se]c1ccccc1` (stereo unspecified), the GI50 was 34.5 µM (inactive) in assay [1]; 34.8 µM (inactive) in [2]; 18.3 µM (inactive) in assay [3]; 16.8 µM in [4]; 31.5 µM (inactive) in assay [5]; 23.3 µM (inactive) in assay [6]. The GI50 is 39.5 µM (inactive) in [7]; 32.9 µM (inactive) in assay [8]; 36.4 µM (inactive) in assay [10]; 42.1 µM (inactive) in assay [11]; 16.3 µM (inactive) in [12]; 17.9 µM (inactive) in assay [13]. The GI50 was 44.2 µM (inactive) in assay [14], 65.8 µM (inactive) in [15], 30.7 µM (inactive) in assay [16] and 51.2 µM (inactive) in [17].

Regarding `O=C1c2ccccc2C2C1N2C(=O)C(F)(F)F` (stereo unspecified), the GI50 is > 100 µM (inactive) in assay [1]; > 100 µM (inactive) in [2]; > 100 µM (inactive) in assay [3]; above 100 µM in [4]; > 100 µM (inactive) in assay [5]; 74.8 µM (inactive) in assay [6]. The GI50 in assay [7], in assay [8], in assay [9], in assay [10], in [11] and in assay [12] was > 100 µM (inactive) in each case. Moreover, the GI50 in assay [13], in [14], in [15], in [16] and in [17] was > 100 µM (inactive) throughout.

For the compound `CN1N=C2c3ccccc3CC[C@H]2C1c1cccc(O)c1` (stereo partly specified), the GI50 in assay [1] is > 100 µM (inactive); in assay [2], 85.5 µM (inactive); in assay [4], above 100 µM; in assay [5], > 100 µM (inactive); in assay [6], 55.1 µM (inactive); in assay [7] it was > 100 µM (inactive). Moreover, the GI50 was 77.4 µM (inactive) in assay [8]; > 100 µM (inactive) in [9]; > 100 µM (inactive) in assay [10]; > 100 µM (inactive) in assay [11]; > 100 µM (inactive) in assay [12]; > 100 µM (inactive) in [13]. Also, the GI50 is 75.9 µM (inactive) in assay [14], > 100 µM (inactive) in [16] and > 100 µM (inactive) in [17].

Consider `CCCCCCCC[N+](C)(C)Cc1ccc(C[N+](C)(C)CCCCCCCC)cc1`, for which the GI50 in assay [1] is 29.6 µM (inactive); in assay [2] it was 32.8 µM (inactive); in assay [3] it was 36.7 µM (inactive); in assay [4], above 100 µM; in assay [5], 63.4 µM (inactive); in [6] it was 6.03 µM (inactive). Further, the GI50 is 15.6 µM (inactive) in assay [7]; 78.7 µM (inactive) in assay [8]; 91.2 µM (inactive) in assay [9]; 85.9 µM (inactive) in [10]; > 100 µM (inactive) in [11]; 6.53 µM (inactive) in assay [12]. Moreover, the GI50 in assay [13] was 5.58 µM (inactive); in assay [14] it was 18.6 µM (inactive); in [15], 45.4 µM (inactive); in [16] it was 7.33 µM (inactive); in assay [17] it was 32.7 µM (inactive).
